Measurements: US5272164A, “Carboximidamide derivatives” (Kirin Beer Kabushiki Kaisha, priority 1988, dated 1993)

Assays:
[1] = test system: isolated rat heart; experiment: Effect on isolated rat heart (Langendorff's method); parameters: species or system male rats; conditions: 1 × 10^-8 mol/min, n=3, mean ± S.D.; for Coronary Perfusate Flow: ** p < 0.01 as compared with nicorandil
Protocol: The effect of the compound of the present invention on heart of rats was examined by using the Langendorff's method [test compound: N-cyano-N'-(2-nitroxyethyl)-3-pyridinecarboximidamide (compound (13))]. Hearts were excised from male rats (weighing 250-350 g) and perfused at 80 cmH2 O in a Langendorff fashion. Krebs-Hensaleit bicarbonate solution (pH 7.4, 37° C.) containing an 11 mM glucose which was oxygenated with 95% O2 -5% CO2 gas mixture was used as a perfusate. The left ventricular pressure was recorded by inserting a latex balloon into the left ventricle, and heart rate was determined from the pulse of it. Coronary perfusate flow as also measured with an electromagnetic flowmeter. The experiments were carried out by perfusing a perfusate containing the compound (13) for 10 minutes after an initial equilibration period for 30 minutes. As the control compound, nicorandil which has an effect opening potassium channel and is similar to the test compound in structure was used. The changes in the coronary perfusate flow and the cardiac function (heart rate×left ventricular pressure) caused by these compounds were expressed as percent changes from the preperfusion values of the compound (13) or nicorandil.

[2] = test system: isolated heart of rats; experiment: Effect on myocardiac injury induced by re-perfusion after ischemia (isolated rat heart); conditions: mean ± SD
Protocol: The cardiac muscle protecting effect of the compound of the present invention was tested by using the isolated heart of rats [test compound: N-cyano-N'-(2-nitroxyethyl)- 3-pyridinecarboximidamide (compound (13))]. The Langendorff's method was used in the same manner as in the aforementioned Referential Example 1)-6. The isolated heart was perfused with a perfusate for 30 minutes and then with a perfusate containing the test compound for 10 minutes, and perfusion was stopped so that the heart was in the so-called "ischemic state". Pacing was performed during the ischemia. […] Parameters of cardiac function after the onset of re-perfusion was monitored for 30 minutes, and the heart was quickly freezed. The amount of ATP in the heart muscle was extracted with perchloric acid and determined by HPLC. Nicorandil was used as a control.
The recovery rate of the cardiac function (heart rate×left ventricular pressure) after onset of reperfusion was calculated based on the cardiac function prior to the perfusion of the compound (13) and nicorandil as 100%. The amount of ATP in the heart muscle was also determined.

[3] = test system: potassium channel; experiment: Potassium channel activating effect (86Rb efflux from rat thoracic aortae); type: cell-based, male Wistar rats; conditions: 10^-4 M, 8 minutes, percent of efflux before application
Protocol: Male Wistar rats (weighing 250-350 g) were dehematized to death, and thoracic aortae were rapidly isolated. The aorta was opened along the longitudinal axis to prepare a flat sheet. The preparation was loaded with ^86 Rb in the Krebs-Ringer solution which contained ^86 Rb in the concentration of 10 μCi/ml and was gassed with 95% 02 5% CO2 at 37° C. for 2 hours. The preparation was then transferred to a Krebs-Ringer solution not containing ^86 Rb, and washed to remove excess radioactivity for 18 minutes by refreshing the solution every 2 minutes. Finally the preparation was placed into a Krebs-Ringer solution containing each compound (10^-4 M) for 8 minutes.
The amount of ^86 Rb efflux from the preparation in each period was determined with a γ-counter.
The increment in efflux rate during the application of the compound was expressed as percent of the efflux before the application of the compound.

[4] = test system: potassium channel; conditions: in words; Trends in Pharmacological Sciences, 8, 283, 1987; cited from earlier work

SMILES | Coronary Perfusate Flow [1] | Increment of Efflux [3] | other results
O=C(NCCO[N+](=O)[O-])c1cccnc1 [Nicorandil] | 3.3 ± 5.6 % change | – | Cardiac Function (heart rate×left ventricular pressure) [1]: 3.7 ± 6.7 percent change; Recovery rate of cardiac function ([2]; 1 × 10^-6 mole/min, n=4): 12.7 ± 8.2%
N#CNC(=NCc1ccccc1)c1cccnc1 [(17), N-cyano-N'-benzyl-3-pyridinecarboximidamide] | – | 135.41% | –
N#CNC(=NCCO[N+](=O)[O-])c1ccncc1 [(41), N-cyano-N'-(2-nitroxyethyl)-4-pyridinecarboximidamide] | – | 126.88% | –
N#CNC(=NCCc1ccccc1)c1cccnc1 [(27), N-cyano-N'-(2-phenylethyl)-3-pyridinecarboximidamide] | – | 206.61% | –
N#CNC(=NCCO[N+](=O)[O-])c1cccnc1 [Compound (13), N-cyano-N'-(2-nitroxyethyl)-3-pyridinecarboximidamide] | 51.3 ± 3.2 % change | 213.53% | Recovery rate of cardiac function ([2]; 1 × 10^-7 mole/min, n=3, ** p < 0.01 vs physiological saline group): 67.5 ± 6.0%
CC1(C)Oc2ccc(C#N)cc2[C@@H](N2CCCC2=O)[C@H]1O (relative stereo) [chromakalim] | – | – | potassium channel activating effect [4]: potassium channel activating effect
